From BigSolDB 2.1

CC(C)(O)P1(=O)OCC2(CO1)COP(=O)(C(C)(C)O)OC2 (stereo not given)
Details	solubility (mole fraction)
in acetic acid, 293.16 K	0.00691
in acetic acid, 298.15 K	0.0078
in acetic acid, 303.14 K	0.00907
in acetic acid, 307.96 K	0.0104
in acetic acid, 312.97 K	0.0114
in acetic acid, 318.05 K	0.0131
in acetic acid, 323.15 K	0.015
in acetic acid, 328.05 K	0.0173
in acetic acid, 333.04 K	0.0196
in acetic acid, 338.14 K	0.0231
in acetone, 293.6 K	0.000582
in acetone, 298.44 K	0.000762
in acetone, 303.35 K	0.00095
in acetone, 308.29 K	0.00124
in acetone, 313.27 K	0.00159
in acetone, 318.4 K	0.00194
in acetone, 323.3 K	0.00234
in ethanol, 294.15 K	0.00153
in ethanol, 297.63 K	0.00184
in ethanol, 303.05 K	0.00231
in ethanol, 307.95 K	0.00269
in ethanol, 313.15 K	0.00346
in ethanol, 318.16 K	0.00391
in ethanol, 322.95 K	0.00476
in ethanol, 327.84 K	0.00582
in ethanol, 332.93 K	0.00666
in ethanol, 337.94 K	0.00846
in methanol, 293.13 K	0.00585
in methanol, 298.15 K	0.00665
in methanol, 302.94 K	0.00751
in methanol, 307.75 K	0.00875
in methanol, 312.76 K	0.00998
in methanol, 317.95 K	0.0117
in methanol, 323.05 K	0.0136
in water, 293.13 K	0.00564
in water, 298.01 K	0.00585
in water, 303.15 K	0.00607
in water, 308.16 K	0.00631
in water, 313.05 K	0.00658
in water, 317.89 K	0.00692
in water, 323.05 K	0.00723
in water, 328.13 K	0.00754
in water, 332.95 K	0.00793
in water, 337.94 K	0.00826
in water, 342.86 K	0.00867
